Literature values in patent US20200316043A1, “PHARMACEUTICAL COMPOSITION COMPRISING CLEVIDIPINE AND PROCESS FOR PREPARATION THEREOF” (Aurobindo Pharma Ltd., priority 2017, published 2020).

Tests used:
[1] = biological target: ileal and aortic smooth muscle and cardiac muscle (Homo sapiens, UniProt Q13936); conditions: EDTA treatment of ileal and aortic smooth muscle and cardiac muscle
Chain of ileal and aortic smooth muscle and cardiac muscle (Q13936 whole entry): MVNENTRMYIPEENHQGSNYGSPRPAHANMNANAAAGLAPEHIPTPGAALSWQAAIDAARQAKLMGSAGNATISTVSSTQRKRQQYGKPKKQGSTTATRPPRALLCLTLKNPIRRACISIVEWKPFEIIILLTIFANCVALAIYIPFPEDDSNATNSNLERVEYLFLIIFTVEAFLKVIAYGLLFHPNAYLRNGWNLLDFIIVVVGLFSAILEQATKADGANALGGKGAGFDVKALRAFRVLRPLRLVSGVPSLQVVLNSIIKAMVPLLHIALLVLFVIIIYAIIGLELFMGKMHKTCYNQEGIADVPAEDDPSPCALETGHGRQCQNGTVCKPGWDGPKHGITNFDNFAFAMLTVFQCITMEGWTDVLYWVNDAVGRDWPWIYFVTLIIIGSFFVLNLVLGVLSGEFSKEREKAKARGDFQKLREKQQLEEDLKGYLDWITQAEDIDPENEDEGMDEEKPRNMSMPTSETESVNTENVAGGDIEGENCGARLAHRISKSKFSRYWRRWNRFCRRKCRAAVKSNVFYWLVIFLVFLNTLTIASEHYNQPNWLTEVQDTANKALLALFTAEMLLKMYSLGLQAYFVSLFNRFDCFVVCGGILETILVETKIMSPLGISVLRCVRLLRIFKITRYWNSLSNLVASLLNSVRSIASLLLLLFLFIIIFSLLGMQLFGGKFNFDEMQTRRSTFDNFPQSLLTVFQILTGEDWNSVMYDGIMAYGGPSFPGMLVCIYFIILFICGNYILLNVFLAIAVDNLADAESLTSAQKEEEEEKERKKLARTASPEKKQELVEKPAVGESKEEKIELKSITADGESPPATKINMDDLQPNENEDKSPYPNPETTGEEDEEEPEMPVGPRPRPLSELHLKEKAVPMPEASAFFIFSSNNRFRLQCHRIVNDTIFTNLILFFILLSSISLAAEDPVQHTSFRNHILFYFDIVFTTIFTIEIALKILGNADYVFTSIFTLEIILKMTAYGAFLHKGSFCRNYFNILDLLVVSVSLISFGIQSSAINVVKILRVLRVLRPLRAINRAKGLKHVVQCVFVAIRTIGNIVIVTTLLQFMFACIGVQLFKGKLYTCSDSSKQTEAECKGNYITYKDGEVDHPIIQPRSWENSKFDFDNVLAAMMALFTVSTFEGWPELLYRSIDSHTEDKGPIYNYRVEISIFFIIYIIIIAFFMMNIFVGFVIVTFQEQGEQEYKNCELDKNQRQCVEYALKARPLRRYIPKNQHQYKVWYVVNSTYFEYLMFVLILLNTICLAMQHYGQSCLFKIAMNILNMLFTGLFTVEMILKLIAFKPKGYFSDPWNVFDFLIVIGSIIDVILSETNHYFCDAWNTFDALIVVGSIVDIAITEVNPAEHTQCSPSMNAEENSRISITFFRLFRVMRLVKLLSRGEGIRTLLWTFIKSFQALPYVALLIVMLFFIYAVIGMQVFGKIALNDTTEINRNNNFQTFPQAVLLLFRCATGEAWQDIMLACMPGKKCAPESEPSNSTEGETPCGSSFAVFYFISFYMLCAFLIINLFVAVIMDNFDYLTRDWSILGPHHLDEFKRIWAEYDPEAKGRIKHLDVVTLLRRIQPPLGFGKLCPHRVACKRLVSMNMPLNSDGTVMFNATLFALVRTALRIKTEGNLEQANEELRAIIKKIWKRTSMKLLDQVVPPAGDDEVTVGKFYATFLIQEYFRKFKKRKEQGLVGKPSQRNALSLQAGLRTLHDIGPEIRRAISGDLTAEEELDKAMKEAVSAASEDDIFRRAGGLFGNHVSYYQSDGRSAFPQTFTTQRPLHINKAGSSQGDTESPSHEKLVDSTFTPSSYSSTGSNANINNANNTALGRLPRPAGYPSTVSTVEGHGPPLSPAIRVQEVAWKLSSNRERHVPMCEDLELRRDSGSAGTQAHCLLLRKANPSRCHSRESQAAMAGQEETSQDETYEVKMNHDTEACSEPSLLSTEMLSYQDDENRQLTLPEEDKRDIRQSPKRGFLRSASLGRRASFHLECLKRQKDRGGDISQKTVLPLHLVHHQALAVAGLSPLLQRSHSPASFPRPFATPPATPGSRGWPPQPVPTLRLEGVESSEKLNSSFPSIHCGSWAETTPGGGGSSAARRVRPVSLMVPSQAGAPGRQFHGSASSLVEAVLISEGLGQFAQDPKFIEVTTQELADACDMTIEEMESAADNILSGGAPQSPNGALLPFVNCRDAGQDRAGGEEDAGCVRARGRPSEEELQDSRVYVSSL

| solubility in lipids | solubility in water | reduction of specific [3H] nitrendipine binding [1] | Compound |
| --- | --- | --- | --- |
| moderate to high | low | – | CCCC(=O)OCOC(=O)C1=C(C)NC(C)=C(C(=O)OC)C1c1cccc(Cl)c1Cl (stereo not drawn) [Clevidipine, butyroxymethyl methyl 4-(2′,3′dichlorophenyl)-1,4-dihydro-2,6-dimethyl-3,5-pyridinedicarboxylate] |
| – | – | 70-95% | O=C(O)CN(CCN(CC(=O)O)CC(=O)O)CC(=O)O [EDTA, Ethylene Diaminetetraacetic acid] |
